Assay results taken from patent publication US20080274892A1, “Novel Haloalkylsulfonanilide Derivative, Herbicide, and Method of Use Thereof” (priority 2005, published 2008).

Tests used:
[1] = system: paddy rice plant (cultivar: Nihonbare); test: Test Example 3: phytotoxicity test for transplanted paddy rice plant; format: in vivo; conditions: dosage 1000 g/ha; transplanted rice, treated 5 days after transplantation; 21 days after treatment
Outline: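 Clay loam soil was placed in a 75 cm^2 plastic pot and flooded to a water depth of 5 cm. Two Nihonbare paddy rice plants at the two-leaf stage were transplanted 1 cm deep and grown in a hot house. After treatment, pots stayed in the hot house for 21 days, and phytotoxicity was then graded against an untreated control.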

false pimpernel [2] = test: Test Example 1: herbicidal efficacy on rice paddy weeds pre-emergence; format: in vivo, Lindernia pyxidaria; conditions: dosage 1000 g/ha, 21 days
bulrush [3] = test: Test Example 4: low dosage test for rice paddy weeds; format: in vivo, Scirpus juncoides; conditions: 300 g/ha as an active ingredient; plants treated at the one leaf stage; 21 days after treatment; vs untreated control
Outline: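 Bulrush sown in clay loam pots, flooded to 5 cm water in a hot house, treated at the one-leaf stage with formulated compound at 300 g/ha. Efficacy scored 0–4 against untreated control 21 days after treatment (4 = 90–100%, 0 = 0% inhibition).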

bulrush [4] = test: Test Example 2: herbicidal efficacy on rice paddy weeds post-emergence; format: in vivo, Scirpus juncoides; conditions: dosage 1000 g/ha; post-emergence, one leaf stage; 21 days after treatment
bulrush [5] = test: Test Example 1: herbicidal efficacy on rice paddy weeds pre-emergence; format: in vivo, Scirpus juncoides; conditions: dosage 1000 g/ha, 21 days
[6] = system: transplanted paddy rice plant and Bulrush; test: Test Example 5: selectivity between transplanted paddy rice plant and weeds; format: in vivo; conditions: (highest dosage with no phytotoxicity to paddy rice)/(lowest dosage with effective level 4 on Bulrush); rice 3000-100 g/ha, Bulrush 300-10 g/ha; 21 days
Outline: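 Transplanted paddy rice was treated at 3000, 1000, 300 and 100 g/ha active ingredient for phytotoxicity, and post-emergence bulrush at 300, 100, 30 and 10 g/ha. Plants were kept in a hothouse for 21 days. Growth inhibition versus untreated control was scored 0–4 (0%, 1–39%, 40–69%, 70–89%, 90–100%).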

false pimpernel [7] = test: Test Example 2: herbicidal efficacy on rice paddy weeds post-emergence; format: in vivo, Lindernia pyxidaria; conditions: dosage 1000 g/ha; post-emergence, one leaf stage; 21 days after treatment
barnyard glass = test: as above; format: in vivo, Echinochloa crus-galli; conditions: dosage 1000 g/ha; post-emergence, one leaf stage; 21 days after treatment
Outline: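 Plastic pots of 75 cm^2 were filled with clay loam soil and sown with barnyard glass and bulrush seeds, then topped with 75 cm^3 soil containing false pimpernel seeds. The pots were flooded to 5 cm water depth and held in a hot house. Twenty-one days after treatment, herbicidal efficacy was graded against an untreated control.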

| Structure (SMILES) | Phytotoxicity to paddy rice [1] | False pimpernel pre (herbicidal efficacy grade) (false pimpernel [2]) | Herbicide effect to Bulrush (bulrush [3]) | Bulrush post (herbicidal efficacy grade) (bulrush [4]) | Bulrush pre (herbicidal efficacy grade) (bulrush [5]) | Selective Index [6] | False pimpernel post (herbicidal efficacy grade) (false pimpernel [7]) | Burnyard grass post (herbicidal efficacy grade) (barnyard glass) |
| --- | --- | --- | --- | --- | --- | --- | --- | --- |
| COC(=O)N(c1ccccc1CN1C(=O)OC(C)(C)C1C)S(=O)(=O)C(F)(F)F (stereo not shown) [1-148] | 3 (70%-89% of herbicidal efficacy or phytotoxicity) | 4 (90%-100% of herbicidal efficacy or phytotoxicity) | 4 (90%-100% of herbicidal efficacy or phytotoxicity) | 4 (90%-100% of herbicidal efficacy or phytotoxicity) | 4 (90%-100% of herbicidal efficacy or phytotoxicity) | ≧30 | 4 (90%-100% of herbicidal efficacy or phytotoxicity) | 4 (90%-100% of herbicidal efficacy or phytotoxicity) |
| COC(=O)N(c1ccccc1CN1CC2(CCCCC2)OC1=O)S(=O)(=O)C(F)(F)F [1-149] | 2 (40%-69% of herbicidal efficacy or phytotoxicity) | 4 (90%-100% of herbicidal efficacy or phytotoxicity) | 4 (90%-100% of herbicidal efficacy or phytotoxicity) | 4 (90%-100% of herbicidal efficacy or phytotoxicity) | 4 (90%-100% of herbicidal efficacy or phytotoxicity) | 10 | 4 (90%-100% of herbicidal efficacy or phytotoxicity) | 4 (90%-100% of herbicidal efficacy or phytotoxicity) |
| COC(=O)N(c1ccccc1CN1C(=O)OCC1C)S(=O)(=O)C(F)(F)F (stereo not shown) [1-150] | 2 (40%-69% of herbicidal efficacy or phytotoxicity) | 4 (90%-100% of herbicidal efficacy or phytotoxicity) | 4 (90%-100% of herbicidal efficacy or phytotoxicity) | 4 (90%-100% of herbicidal efficacy or phytotoxicity) | 4 (90%-100% of herbicidal efficacy or phytotoxicity) | 10 | 4 (90%-100% of herbicidal efficacy or phytotoxicity) | 4 (90%-100% of herbicidal efficacy or phytotoxicity) |
| COC(=O)N(c1ccccc1CN1C(=O)OC2CCCCC21)S(=O)(=O)C(F)(F)F (stereo not shown) [1-152] | 1 (1%-39% of herbicidal efficacy or phytotoxicity) | 4 (90%-100% of herbicidal efficacy or phytotoxicity) | 4 (90%-100% of herbicidal efficacy or phytotoxicity) | 4 (90%-100% of herbicidal efficacy or phytotoxicity) | 4 (90%-100% of herbicidal efficacy or phytotoxicity) | 10 | 4 (90%-100% of herbicidal efficacy or phytotoxicity) | 4 (90%-100% of herbicidal efficacy or phytotoxicity) |
| COC(=O)N(c1ccccc1CN1CC(C)(C(C)(C)C)OC1=O)S(=O)(=O)C(F)(F)F (stereo not shown) [1-153] | 1 (1%-39% of herbicidal efficacy or phytotoxicity) | 4 (90%-100% of herbicidal efficacy or phytotoxicity) | 4 (90%-100% of herbicidal efficacy or phytotoxicity) | 4 (90%-100% of herbicidal efficacy or phytotoxicity) | 4 (90%-100% of herbicidal efficacy or phytotoxicity) | 10 | 4 (90%-100% of herbicidal efficacy or phytotoxicity) | 4 (90%-100% of herbicidal efficacy or phytotoxicity) |
